This is an account of results in US9447084B2, “Antiparisitic and pesticidal isoxazoline compounds” (MERIAL LIMITED, priority 2013, dated 2016).

The EC50 is the midpoint of the concentration-response curve. A higher EC50 goes with lower potency in that assay.

Where only a bound is given, the exact number is not on record here.

In the experiment the test system is Ctenocephalides felis. Put plainly: Efficacy of compounds against fleas following ingestion (membrane feeding on treated bovine blood). Particulars: for EC50 (ppm): efficacy against fleas, method of Example 19, compounds with vs without carbonyl group in Ring D; for EC50: 10 adult Ctenocephalides felis feeding on treated bovine blood, assessment at 72 hours after application vs untreated controls. Format: in vivo. As for the experimental part:
A cylindrical test container was filled with 10 adult Ctenocephalides felis. A cylindrical well was closed on one end with a self-sealing flexible film and placed on top of the test container in such a position that the fleas could pierce the film and feed on the contents of the cylinder. The test compound solution was then pipetted into bovine blood and added to the well. The container part with the Ctenocephalides felis was held at 20-22° C. and 40-60% relative humidity while the well part containing the treated blood was held at 37° C. and 40-60% relative humidity. Assessment was performed at 72 hours after application in comparison with untreated controls. […] In this regard, the efficacy of the compounds of the invention having at least one carbonyl group in Ring D against fleas was compared with the efficacy of corresponding compounds that are not substituted with a carbonyl group in Ring D using the method of Example 19.

Regarding `Cc1cc(C2=NOC(c3cc(Cl)cc(Cl)c3)(C(F)(F)F)C2)ccc1C(=O)N1CC(=O)N(CC(F)(F)F)C(=O)C1` (stereo not drawn), the “EC50 (ppm)” value is given as less than 0.1 ppm. Still for that read-out and setting: next, `Cc1cc(C2=NOC(c3cc(Cl)cc(Cl)c3)(C(F)(F)F)C2)ccc1C(=O)N1CC(=O)NC(=O)C1` (stereo not drawn): less than 0.1 ppm. `CCN1CCN(C(=O)c2ccc(C3=NOC(c4cc(Cl)cc(Cl)c4)(C(F)(F)F)C3)cc2C)C1=O` (stereo not drawn) [Compound 54] displayed an EC50 not above 10 µg/mL. On the same count and under the same terms, next, `Cc1cc(C2=NOC(c3cc(Cl)cc(Cl)c3)(C(F)(F)F)C2)ccc1C(=O)NN1CCN(CC(F)(F)F)C1=O` (stereo not drawn) [Compound 67, 4-[5-(3,5-dichlorophenyl)-5-(trifluoromethyl)-4,5-dihydro-1,2-oxazol-3-yl]-2-methyl-N-[2-oxo-3-(2,2,2-trifluoroethyl)imidazolidin-1-yl]benzamide]: not above 1 µg/mL; `Cc1cc(C2=NOC(c3cc(Cl)cc(C(F)(F)F)c3)(C(F)(F)F)C2)ccc1C(=O)NN1CCCN(CC(F)(F)F)C1=O` (stereo not drawn) [Compound 70]: not above 1 µg/mL; `Cc1cc(C2=NOC(c3cc(Cl)cc(C(F)(F)F)c3)(C(F)(F)F)C2)ccc1C(=O)N1CC(=O)N(CC(F)(F)F)C1` (stereo not drawn) [Compound 71, 1-[(4-[5-[3-chloro-5-(trifluoromethyl)phenyl]-5-(trifluoromethyl)-4,5-dihydro-1,2-oxazol-3-yl]-2-methylphenyl)carbonyl]-3-(2,2,2-trifluoroethyl)imidazolidin-4-one]: not above 0.1 µg/mL. As to `Cc1cc(C2=NOC(c3cc(Cl)cc(C(F)(F)F)c3)(C(F)(F)F)C2)ccc1C(=O)N1CC(=O)N(CCC(F)(F)F)C1` (stereo not drawn) [Compound 80, 1-[(4-[5-[3-chloro-5-(trifluoromethyl)phenyl]-5-(trifluoromethyl)-4,5-dihydro-1,2-oxazol-3-yl]-2-methylphenyl)carbonyl]-3-(3,3,3-trifluoropropyl)imidazolidin-4-one], the EC50 is not above 0.1 µg/mL.

`O=C(NN1CCCN(CC(F)(F)F)C1=O)c1ccc(C2=NOC(c3cc(C(F)(F)F)cc(C(F)(F)F)c3)(C(F)(F)F)C2)cc1C(F)(F)F` (stereo not drawn) [Compound 90, 4-[5-[3,5-bis(trifluoromethyl)phenyl]-5-(trifluoromethyl)-4,5-dihydro-1,2-oxazol-3-yl]-N-[2-oxo-3-(2,2,2-trifluoroethyl)-1,3-diazinan-1-yl]-2-(trifluoromethyl)benzamide] registered an EC50 not above 1 µg/mL. On the same count and under the same terms, the same measure for `O=C(NN1CCCN(CC(F)(F)F)C1=O)c1ccc(C2=NOC(c3cc(Cl)cc(Cl)c3)(C(F)(F)F)C2)cc1C(F)(F)F` (stereo not drawn) [Compound 91, 4-[5-(3,5-dichlorophenyl)-5-(trifluoromethyl)-4,5-dihydro-1,2-oxazol-3-yl]-N-[2-oxo-3-(2,2,2-trifluoroethyl)-1,3-diazinan-1-yl]-2-(trifluoromethyl)benzamide]: not above 1 µg/mL; for `O=C(c1ccc(C2=NOC(c3cc(Cl)cc(Cl)c3)(C(F)(F)F)C2)cc1C(F)(F)F)N1CC(=O)N(CC(F)(F)F)C(=O)C1` (stereo not drawn) [Compound 92, 4-([4-[5-(3,5-dichlorophenyl)-5-(trifluoromethyl)-4,5-dihydro-1,2-oxazol-3-yl]-2-(trifluoromethyl)phenyl]carbonyl)-1-(2,2,2-trifluoroethyl)piperazine-2,6-dione]: not above 10 µg/mL; for `O=C1CN(C(=O)c2ccc(C3=NOC(c4cc(Cl)cc(Cl)c4)(C(F)(F)F)C3)cc2C(F)(F)F)CN1CC(F)(F)F` (stereo not drawn) [Compound 93, 1-([4-[5-(3,5-dichlorophenyl)-5-(trifluoromethyl)-4,5-dihydro-1,2-oxazol-3-yl]-2-(trifluoromethyl)phenyl]carbonyl)-3-(2,2,2-trifluoroethyl)imidazolidin-4-one]: not above 1 µg/mL. The same measure, in the same setting: next, `CCCN1C(=O)CN(C(=O)c2ccc(C3=NOC(c4cc(Cl)cc(C(F)(F)F)c4)(C(F)(F)F)C3)cc2C(F)(F)F)CC1=O` (stereo not drawn) [Compound 95, 4-[(4-[5-[3-chloro-5-(trifluoromethyl)phenyl]-5-(trifluoromethyl)-4,5-dihydro-1,2-oxazol-3-yl]-2-(trifluoromethyl)phenyl)carbonyl]-1-propylpiperazine-2,6-dione]: not above 10 µg/mL; `O=C1CN(C(=O)c2ccc(C3=NOC(c4cc(Cl)cc(C(F)(F)F)c4)(C(F)(F)F)C3)cc2C(F)(F)F)CN1CC(F)(F)F` (stereo not drawn) [Compound 96, 1-[(4-[5-[3-chloro-5-(trifluoromethyl)phenyl]-5-(trifluoromethyl)-4,5-dihydro-1,2-oxazol-3-yl]-2-(trifluoromethyl)phenyl)carbonyl]-3-(2,2,2-trifluoroethyl)imidazolidin-4-one]: not above 1 µg/mL; `O=C(NN1CCCN(CC(F)(F)F)C1=O)c1ccc(C2=NOC(c3cc(Cl)cc(C(F)(F)F)c3)(C(F)(F)F)C2)cc1C(F)(F)F` (stereo not drawn) [Compound 97, 4-[5-[3-chloro-5-(trifluoromethyl)phenyl]-5-(trifluoromethyl)-4,5-dihydro-1,2-oxazol-3-yl]-N-[2-oxo-3-(2,2,2-trifluoroethyl)-1,3-diazinan-1-yl]-2-(trifluoromethyl)benzamide]: not above 1 µg/mL. Still for that read-out and setting: the same measure for `O=C1CN(C(=O)c2ccc(C3=NOC(c4cc(Cl)cc(C(F)(F)F)c4)(C(F)(F)F)C3)cc2C(F)(F)F)CN1CCC(F)(F)F` (stereo not drawn) [Compound 98, 1-[(4-[5-[3-chloro-5-(trifluoromethyl)phenyl]-5-(trifluoromethyl)-4,5-dihydro-1,2-oxazol-3-yl]-2-(trifluoromethyl)phenyl)carbonyl]-3-(3,3,3-trifluoropropyl)imidazolidin-4-one]: not above 1 µg/mL; for `O=C1CN(C(=O)c2ccc(C3=NOC(c4cc(Cl)cc(C(F)(F)F)c4)(C(F)(F)F)C3)cc2CC(F)(F)F)CN1CCC(F)(F)F` (stereo not drawn) [Compound 99, 1-[(4-[5-[3-chloro-5-(trifluoromethyl)phenyl]-5-(trifluoromethyl)-4,5-dihydro-1,2-oxazol-3-yl]-2-(2,2,2-trifluoroethyl)phenyl)carbonyl]-3-(3,3,3-trifluoropropyl)imidazolidin-4-one]: not above 1 µg/mL; for `Cc1cc(C2=NOC(c3cc(Cl)cc(C(F)(F)F)c3)(C(F)(F)F)C2)ccc1C(=O)N1CCN(CCC(F)(F)F)C1` (stereo not drawn) [Compound 100]: not above 10 µg/mL. Take `O=C1CN(C(=O)c2ccc(C3=NOC(c4cc(Cl)cc(C(F)(F)F)c4)(C(F)(F)F)C3)c3ccccc23)CN1CCC(F)(F)F` (stereo not drawn) [Compound 112, 1-[(4-[5-[3-chloro-5-(trifluoromethyl)phenyl]-5-(trifluoromethyl)-4,5-dihydro-1,2-oxazol-3-yl]naphthalen-1-yl)carbonyl]-3-(3,3,3-trifluoropropyl)imidazolidin-4-one]: the EC50 is not above 0.1 µg/mL. Same read-out and setting: next, `Cc1cc(C2=NOC(c3cc(Cl)cc(C(F)(F)F)c3)(C(F)(F)F)C2)ccc1C(=O)N1CC(=O)N(CS(C)(=O)=O)C1` (stereo not drawn) [Compound 114, 1-[(4-[5-[3-Chloro-5-(trifluoromethyl)phenyl]-5-(trifluoromethyl)-4,5-dihydro-1,2-oxazol-3-yl]-2-methylphenyl)carbonyl]-3-(methanesulfonylmethyl)imidazolidin-4-one]: not above 10 µg/mL. The same measure, in the same setting: the same measure for `Cc1cc(C2=NOC(c3cc(Cl)c(F)c(Cl)c3)(C(F)(F)F)C2)ccc1C(=O)N1CC(=O)N(CCC(F)(F)F)C1` (stereo not drawn) [Compound 115, 1-([4-[5-(3,5-dichloro-4-fluorophenyl)-5-(trifluoromethyl)-4,5-dihydro-1,2-oxazol-3-yl]-2-methylphenyl]carbonyl)-3-(3,3,3-trifluoropropyl)imidazolidin-4-one]: not above 0.1 µg/mL. For the compound `Cc1cc(C2=NOC(c3cc(Cl)cc(C(F)(F)F)c3)(C(F)(F)F)C2)ccc1C(=O)N1CC(=O)N(CCC(F)(F)F)C1` (stereo not drawn) [drawing 155], the “EC50 (ppm)” value was less than 0.1 ppm. Same read-out and setting: next, `Cc1cc(C2=NOC(c3cc(Cl)cc(C(F)(F)F)c3)(C(F)(F)F)C2)ccc1C(=O)N1CCN(CCC(F)(F)F)C1` (stereo not drawn) [drawing 156, reference compound]: 1-10 ppm. Same read-out and setting: next, `Cc1cc(C2=NOC(c3cc(Cl)cc(Cl)c3)(C(F)(F)F)C2)ccc1C(=O)N1CCN(CC(F)(F)F)CC1` (stereo not drawn) [reference compound]: 10-20 ppm; `Cc1cc(C2=NOC(c3cc(Cl)cc(Cl)c3)(C(F)(F)F)C2)ccc1C(=O)N1CCNCC1` (stereo not drawn) [reference compound]: 1-10 ppm.
